The values that follow come from US20240150322A1, “CDK9 Inhibitors” (Biolexis Therapeutics, Inc., priority 2022, published 2024).

The nature of data set [1]: Pharmacokinetic study in male Beagle dogs. Conditions: dog, plasma; for Tmax: read-out: Tmax (hours), median (min-max); for Vd: male, Beagle, iv, 1 mg/kg. Type of data set: in vivo. The protocol: Last time of mean concentrations was 24 hours following intravenous bolus injection.
The next data set addresses Haspin (Homo sapiens, UniProt Q8TF76). The experiment in a line: scanMAX panel and Kd follow-up. Type of data set: binding.

Where two headings read alike, the source gives them in different places.

Chain of Haspin (Q8TF76 whole entry): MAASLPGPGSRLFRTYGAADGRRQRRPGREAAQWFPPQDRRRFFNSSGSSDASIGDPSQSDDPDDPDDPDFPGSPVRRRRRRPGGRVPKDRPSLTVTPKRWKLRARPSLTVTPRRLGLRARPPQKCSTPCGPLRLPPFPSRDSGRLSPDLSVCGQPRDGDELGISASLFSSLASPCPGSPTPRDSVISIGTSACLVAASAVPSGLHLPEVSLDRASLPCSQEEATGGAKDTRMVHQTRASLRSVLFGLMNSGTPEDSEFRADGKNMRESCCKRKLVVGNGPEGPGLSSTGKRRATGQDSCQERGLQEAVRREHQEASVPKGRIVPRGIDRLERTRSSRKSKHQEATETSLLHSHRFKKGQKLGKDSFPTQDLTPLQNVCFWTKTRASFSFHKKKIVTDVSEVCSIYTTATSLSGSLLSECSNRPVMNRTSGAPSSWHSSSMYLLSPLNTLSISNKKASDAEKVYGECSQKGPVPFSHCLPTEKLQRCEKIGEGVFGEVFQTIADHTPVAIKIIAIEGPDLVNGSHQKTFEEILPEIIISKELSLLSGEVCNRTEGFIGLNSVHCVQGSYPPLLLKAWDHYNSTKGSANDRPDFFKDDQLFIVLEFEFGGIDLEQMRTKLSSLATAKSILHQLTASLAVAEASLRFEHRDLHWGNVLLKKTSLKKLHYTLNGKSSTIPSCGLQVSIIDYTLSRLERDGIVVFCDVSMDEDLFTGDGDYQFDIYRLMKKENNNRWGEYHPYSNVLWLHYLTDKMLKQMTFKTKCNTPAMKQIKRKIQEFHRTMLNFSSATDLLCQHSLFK

As to `CC(C)c1c2cc(-c3ccnc(N[C@H]4CC[C@H](N)C4)n3)ccc2nn1C` [Compound I-2, (1S,3S)-[3-[4-(3-isopropyl-2-methylindazol-5-yl)pyrimidin-2-yl]aminocyclopentan-1-yl]-1,3-diamine], in data set [1] (IV 1 mg/kg), the half-life (as a rule, the time needed for the level to fall by half in the phase considered) was 4.26 h; the AUC (commonly concentration integrated over time) came to 529 ± 200 ng·h/mL; the AUC(0-inf) (in general, the area under the concentration-time curve extrapolated to infinity) worked out at 566 ± 191 ng·h/mL; the mean residence time MRT (as a rule, a mean duration of stay, worked out from the concentration-time curve) is 3.82 ± 1.25 h. For the same molecule, in data set [1] (IV 1 mg/kg), the clearance (usually a measure of how efficiently the substance is removed, as volume per time) is 31.8 ± 10.7 mL/min/kg and the Tmax (commonly the time at which the peak concentration occurs) worked out at 0.08 h. In addition, in data set [1] (oral 3 mg/kg), the half-life is 5.81 h, the AUC worked out at 1300 ± 233 ng·h/mL, the AUC(0-inf) stood at 1340 ± 242 ng·h/mL and the Cmax (usually the maximum level reached in the sampled fluid or tissue) was 373 ± 238 ng/mL. Further, in data set [1] (oral 3 mg/kg), the MRT turned out to be 4.92 ± 0.97 h and the Tmax turned out to be 1 h. In addition, in data set [1] (IV 1 mg/kg, extrapolated concentration at time zero), the C0 was 312 ± 98.3 ng/mL. Further, the bioavailability (commonly the share of a dose that reaches the circulation, judged against a reference dose that is usually intravenous) in data set [1] (oral 3 mg/kg vs IV 1 mg/kg, from nominal doses and AUCinf, read-out: % F (oral bioavailability)) is 83 ± 22%. Besides, in data set [1] (IV 1 mg/kg, read-out: Vd), the Vd is 11.3 ± 2.93 L/kg. For the same molecule, the Vd in data set [1] (IV 1 mg/kg, read-out: Vss) is 9.35 ± 2.74 L/kg. Also, the Kd – broadly, the free concentration of one partner at which half of the binding sites on the other are occupied at equilibrium, for simple one-to-one binding – on Haspin came to 2.8 nM. In addition, the remaining binding at 1 µM on Haspin (1 μM, read-out: % of control activity) fell in the range of 0 to 1%.
